Like-named read-outs stand apart in the source and are kept apart here.
Assays:
Type in all cases: cell-based, human
[1] = system: foreskin cells in which senescence was induced by doxorubicin; assay: CellTiter-Glo cell viability of doxorubicin-induced senescent foreskin cells (Examples 1-2, 10, 11, 13; Tables 4, 63, 65); conditions: for viability at 1.1 µM / viability at 10 µM / viability at 30 µM / viability at 90 µM / viability at […] / viability at 270 µM: Homo sapiens, 72 h, read-out: Survival (%); for viability at 30 µM: 30 μM test compound; for viability at 90 µM: 90 μM test compound; for viability at 270 µM: 270 μM test compound
Method: After 3 days, cell viability was measured using CellTiter-Glo Luminescent Cell Viability Assay (Promega) or light microscopy.

HMGN1 [2] = assay: HMGN1 ELISA in culture medium of foreskin cells (Examples 10, 11; Tables 62, 63, 64); conditions: Homo sapiens; for activity at 90 µM: 90 μM test compound; for activity at 30 µM: read-out: HMGN1; for activity at 270 µM: 270 μM test compound
HMGN1 [3] = assay: HMGN1 ELISA in culture medium of A549 cancer cells (Example 12, Table 66); conditions: Homo sapiens; for activity at 270 µM: test compound 270 μM; for activity at 90 µM: test compound 90 μM
A549 = assay: CellTiter-Glo cell viability of senescent A549 cancer cells (Example 12, Table 67); conditions: Homo sapiens; for viability at 90 µM: 90 μM test compound; for viability at 270 µM: 270 μM test compound
[4] = 1.1 μM test compound, doxorubicin-induced senescent foreskin cells, CellTiter-Glo, 0 μM = 100
[5] = 10 μM test compound, doxorubicin-induced senescent foreskin cells, CellTiter-Glo, 0 μM = 100
[6] = doxorubicin-induced senescent foreskin cells, CellTiter-Glo, 0 μM = 100
[7] = […] test compound, doxorubicin-induced senescent foreskin cells, CellTiter-Glo, 0 μM = 100
[8] = doxorubicin-treated foreskin cells, DMSO = 100
[9] = A549, doxorubicin-induced senescent A549 cells, ELISA, DMSO = 100, read-out: HMGN1 (amount of HMGN1 secreted in the cell culture)
[10] = A549, doxorubicin-induced senescent A549 cancer cells, 1.1 μM test compound, CellTiter-Glo, read-out: Survival (%)
[11] = A549, doxorubicin-induced senescent A549 cancer cells, 10 μM test compound, CellTiter-Glo, read-out: Survival (%)
[12] = A549, doxorubicin-induced senescent A549 cancer cells, 30 μM test compound, CellTiter-Glo, read-out: Survival (%)
[13] = A549, doxorubicin-induced senescent A549 cancer cells, CellTiter-Glo, read-out: Survival (%)
[14] = 30 μM test compound, doxorubicin-treated foreskin cells, DMSO = 100
[15] = A549, doxorubicin-induced senescent A549 cells, test compound 30 μM, ELISA, DMSO = 100, read-out: HMGN1 (amount of HMGN1 secreted in the cell culture)

C=C(C)[C@@H]1CC[C@]2(C(=O)O)CC[C@]3(C)[C@H](CC[C@@H]4[C@@]5(C)CC[C@H](O)C(C)(C)[C@@H]5CC[C@]43C)[C@@H]12 [LX-2005, Betulinic acid]
viability at 1.1 µM [1, 4]: 97.5%
viability at 10 µM [1, 5]: 87.2%
viability at 30 µM [1, 6]: 73.8%
viability at 90 µM [1, 6]: 31.5%
viability at […] [1, 7]: 93.3%
activity at 90 µM (HMGN1 [2]; [8]): 212%
activity at 270 µM (HMGN1 [3]; [9]): 252%
viability at 1.1 µM (A549; [10]): 102%
viability at 10 µM (A549; [11]): 95.7%
viability at 30 µM (A549; [12]): 82.9%
viability at 90 µM (A549; [13]): 57.2%
viability at 270 µM (A549; [13]): 5.3%

Cc1oncc1C(=O)Nc1ccc(C(F)(F)F)cc1 [LX-1603, Leflunomide, reference compound]
viability at 1.1 µM [1, 4]: 101%
viability at 10 µM [1, 5]: 91.1%
viability at 30 µM [1, 6]: 84.3%
viability at 90 µM [1, 6]: 48.3%
viability at […] [1, 7]: 95.6%
activity at 90 µM (HMGN1 [2]; [8]): 168%
activity at 90 µM (HMGN1 [3]; [9]): 163%
viability at 1.1 µM (A549; [10]): 99.6%
viability at 10 µM (A549; [11]): 95.7%
viability at 30 µM (A549; [12]): 96.5%
viability at 90 µM (A549; [13]): 49.8%

CCOc1cc2ncc(C#N)c(Nc3ccc(OCc4ccccn4)c(Cl)c3)c2cc1NC(=O)/C=C/CN(C)C [LX-1608, Neratinib, reference compound]
viability at 1.1 µM [1]: 45.1%
viability at 10 µM [1]: 3.9%
activity at 30 µM (HMGN1 [2]): 296%
activity at 30 µM (HMGN1 [3]; A549, read-out: HMGN1 (amount of HMGN1 secreted in the cell culture)): 317%
viability at 1.1 µM (A549; A549, read-out: Survival (%)): 59.3%
viability at 10 µM (A549; A549, read-out: Survival (%)): 24.7%
viability at 30 µM (A549; A549, read-out: Survival (%)): 2.6%

CC1(C)C=C2[C@H]3CC[C@@H]4[C@@]5(C)CCC(=O)C(C)(C)[C@@H]5CC[C@@]4(C)[C@]3(C)CC[C@@]2(C(=O)O)CC1 [LX-2007, Moronic acid]
viability at 1.1 µM [1, 4]: 105%
viability at 10 µM [1, 5]: 91.2%
viability at 30 µM [1, 6]: 83.9%
viability at 90 µM [1, 6]: 47.2%
viability at 270 µM [1, 6]: 1.3%
viability at […] [1, 7]: 98.9%
activity at 270 µM (HMGN1 [2]; [8]): 255%
activity at 270 µM (HMGN1 [3]; [9]): 192%
viability at 1.1 µM (A549; [10]): 111%
viability at 10 µM (A549; [11]): 96.3%
viability at 30 µM (A549; [12]): 87.9%
viability at 90 µM (A549; [13]): 62.8%
viability at 270 µM (A549; [13]): 32.4%

CCc1nc(C(N)=O)c(Nc2ccc(N3CCC(N4CCN(C)CC4)CC3)c(OC)c2)nc1NC1CCOCC1 [LX-3303, Gilteritinib, reference compound]
viability at 1.1 µM [1, 4]: 83.9%
viability at 10 µM [1, 5]: 13.9%
viability at […] [1, 7]: 69.4%
activity at 30 µM (HMGN1 [2]; [14]): 275%
activity at 30 µM (HMGN1 [3]; [15]): 239%
viability at 1.1 µM (A549; [10]): 101%
viability at 10 µM (A549; [11]): 53.8%
viability at 30 µM (A549; [12]): 11.7%

Cc1noc([C@]23CCC(C)(C)C[C@H]2[C@H]2C(=O)C=C4[C@@]5(C)C=C(C#N)C(=O)C(C)(C)[C@@H]5CC[C@@]4(C)[C@]2(C)CC3)n1 [LX-2401]
viability at 1.1 µM [1, 4]: 46.4%
viability at […] [1, 7]: 6.8%
activity at 30 µM (HMGN1 [2]; [14]): 303%
activity at 30 µM (HMGN1 [3]; [15]): 284%
viability at 1.1 µM (A549; [10]): 108%
viability at 10 µM (A549; [11]): 15.9%

C[C@@H]1C(=O)[C@]2(C#N)O[C@@H]2[C@]2(C)C3=CC(=O)[C@@H]4[C@@H]5CC(C)(C)CC[C@]5(NC(=O)C(C)(F)F)CC[C@@]4(C)[C@]3(C)CC[C@@H]12 [LX-2319]
viability at 1.1 µM [1, 4]: 52.9%
viability at […] [1, 7]: 21.9%
activity at 30 µM (HMGN1 [2]; [14]): 241%
activity at 30 µM (HMGN1 [3]; [15]): 310%
viability at 1.1 µM (A549; [10]): 96.5%
viability at 10 µM (A549; [11]): 21.3%

CC/C=C\C/C=C\C/C=C\C/C=C\C/C=C\C/C=C\CCC(=O)O [LX-2702, Docosahexaenoic acid]
viability at 1.1 µM [1, 4]: 104%
viability at 10 µM [1, 5]: 87.4%
viability at 30 µM [1, 6]: 49.6%
viability at 90 µM [1, 6]: 22.9%
viability at […] [1, 7]: 99.1%
activity at 90 µM (HMGN1 [2]; [8]): 206%
activity at 90 µM (HMGN1 [3]; [9]): 237%
viability at 1.1 µM (A549; [10]): 96.7%
viability at 10 µM (A549; [11]): 94.4%
viability at 30 µM (A549; [12]): 55.1%
viability at 90 µM (A549; [13]): 9.5%

C[C@@H]1C(=O)C(C#N)=C[C@]2(C)C3=CC(=O)[C@@H]4[C@@H]5CC(C)(C)CC[C@]5(c5nnc(CF)o5)CC[C@@]4(C)[C@]3(C)CC[C@@H]12 [LX-2507]
viability at 1.1 µM [1, 4]: 46.6%
viability at […] [1, 7]: 38.6%
activity at 30 µM (HMGN1 [2]; [14]): 267%
activity at 30 µM (HMGN1 [3]; [15]): 248%
viability at 1.1 µM (A549; [10]): 97.5%
viability at 10 µM (A549; [11]): 35.7%

NCC(=O)CCC(=O)O [LX-1103, 5-Aminolevulinic acid, reference compound]
viability at 1.1 µM [1, 4]: 104%
viability at 10 µM [1, 5]: 99.6%
viability at 30 µM [1, 6]: 95.2%
viability at 90 µM [1, 6]: 88%
viability at 270 µM [1, 6]: 61.3%
viability at […] [1, 7]: 98.9%
activity at 270 µM (HMGN1 [2]; [8]): 172%
activity at 270 µM (HMGN1 [3]; [9]): 158%
viability at 1.1 µM (A549; [10]): 96.6%
viability at 10 µM (A549; [11]): 95.1%
viability at 30 µM (A549; [12]): 91%
viability at 90 µM (A549; [13]): 91.1%
viability at 270 µM (A549; [13]): 63.7%

Clc1ccc(C(c2ccccc2Cl)C(Cl)Cl)cc1 (stereo not drawn) [LX-1301, Mitotane, reference compound]
viability at 1.1 µM [1, 4]: 104%
viability at 10 µM [1, 5]: 83%
viability at 30 µM [1, 6]: 0.4%
viability at […] [1, 7]: 106%
activity at 30 µM (HMGN1 [2]; [14]): 281%
activity at 30 µM (HMGN1 [3]; [15]): 318%
viability at 1.1 µM (A549; [10]): 106%
viability at 10 µM (A549; [11]): 101%
viability at 30 µM (A549; [12]): 17.5%

Cc1[nH]nc(C(F)(F)F)c1Cc1sc2c(c1C(=O)N1C[C@](C)(O)CO1)c(=O)n(C)c(=O)n2C(C)C [LX-3203]
viability at 1.1 µM [1, 4]: 107%
viability at […] [1, 7]: 15.4%
activity at 30 µM (HMGN1 [2]; [14]): 315%
activity at 30 µM (HMGN1 [3]; [15]): 293%
viability at 1.1 µM (A549; [10]): 105%
viability at 10 µM (A549; [11]): 21.6%

C[C@H]1Cc2c([nH]c3ccccc23)[C@H](c2ccc([Si](C)(C)C)cc2)N1C(=O)CCl [LX-412]
viability at 1.1 µM [1, 4]: 0.3%
activity at 30 µM (HMGN1 [2]; [14]): 293%
activity at 30 µM (HMGN1 [3]; [15]): 327%
viability at 1.1 µM (A549; [10]): 4.8%

Cc1onc(C(=O)N2CCN(C(c3ccc(Cl)cc3)c3ccc(OCc4cn(CCOCCOCCNc5cccc6c5C(=O)N(C5CCC(=O)NC5=O)C6=O)nn4)cc3)CC2)c1[N+](=O)[O-] (stereo not drawn) [LX-432, 4-((2-(2-(2-(4-((4-((4-chlorophenyl)(4-(5-methyl-4-nitroisooxazol-3-carbonyl)piperazin-1-yl)methyl)phenoxy)methyl)-1H-1,2,3-triazol-1-yl)ethoxy)ethoxy)ethyl)amino)-2-(2,6-dioxopiperidin-3-yl)isoindolin-1,3-dione]
viability at 1.1 µM [1, 4]: 84.2%
Survival (%) [1, 7]: 23.8%
activity at 30 µM (HMGN1 [2]; [14]): 304%
activity at 30 µM (HMGN1 [3]; [15]): 270%
viability at 1.1 µM (A549; [10]): 97.1%

C[C@@H]1[C@H]2[C@H]3C(=O)C=C4[C@@]5(C)C=C(C#N)C(=O)C(C)(C)[C@@H]5CC[C@@]4(C)[C@]3(C)CC[C@@]2(c2nc(CCO)no2)CC[C@H]1C [LX-2511]
viability at 1.1 µM [1, 4]: 43.5%
viability at […] [1, 7]: 8.4%
activity at 30 µM (HMGN1 [2]; [14]): 306%
activity at 30 µM (HMGN1 [3]; [15]): 296%
viability at 1.1 µM (A549; [10]): 97.2%
viability at 10 µM (A549; [11]): 2.1%
